Data published in the supplement of paper PMC10331698.
± gives the standard deviation of the averaged measurements.

Assays:
Assay in all cases: level (log10 ratio to DMSO vehicle control); higher = higher biomarker level / cell amount than vehicle control
Settings in all cases: in DMSO
1-(Perfluorohexyl)octane = compound: CCCCCCCCC(F)(F)C(F)(F)C(F)(F)C(F)(F)C(F)(F)C(F)(F)F [1-(Perfluorohexyl)octane]
Method: (§1)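 BioMAP Diversity Plus panel of 12 human primary cell co-culture systems (3C, 4H, LPS, SAg, BT, BF4T, BE3C, CASM3C, HDF3CGF, KF3CT, MyoF, Mphg). Compounds were added 1 h before stimulation and left for 24 h (MyoF 48 h; BT 72 h for soluble read-outs or 6 d for IgG). Biomarkers were read by ELISA, cytotoxicity by SRB, PBMC viability and proliferation by Alamar Blue. Each well value was divided by the mean of 8 DMSO control wells on the same plate and log10 transformed; duplicate blinded samples were tested at 4 concentrations.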

Azathioprine = compound: Cn1cnc([N+](=O)[O-])c1Sc1ncnc2[nH]cnc12 [Azathioprine]
Method: as §1

Perfluorooctanamide = compound: NC(=O)C(F)(F)C(F)(F)C(F)(F)C(F)(F)C(F)(F)C(F)(F)C(F)(F)F [Perfluorooctanamide]
Method: as §1

[1] = compound: O=C(O)C(F)(F)C(F)(F)C(F)(F)C(F)(F)C(F)(F)C(F)(F)C(F)(F)C(F)(F)Cl [9-Chloro-perfluorononanoic acid]
Method: as §1

[2] = compound: O=C(O)C(F)(F)OC(F)(F)C(F)(F)OC(F)(F)C(F)(F)C(F)(F)C(F)(F)F [Perfluoro-3,6-dioxadecanoic acid]
Method: as §1

[3] = compound: O=S(=O)(O)C(F)(F)C(F)(F)C(F)(F)C(F)(F)F [Perfluorobutanesulfonic acid]
Method: as §1

1H,1H-Heptafluorobutanol = compound: OCC(F)(F)C(F)(F)C(F)(F)F [1H,1H-Heptafluorobutanol]
Method: as §1

| Test System | level (log10) (1-(Perfluorohexyl)octane; 6700 nM) | level (log10) (1-(Perfluorohexyl)octane; 20000 nM) | level (log10) (Azathioprine; 1400 nM) | level (log10) (Azathioprine; 4200 nM) | level (log10) (Azathioprine; 13000 nM) | level (log10) (Azathioprine; 38000 nM) | level (log10) (Perfluorooctanamide; 6700 nM) | level (log10) (Perfluorooctanamide; 20000 nM) | level (log10) (Perfluorooctanamide; 60000 nM) | level (log10) ([1]; 6700 nM) | level (log10) ([1]; 20000 nM) | level (log10) ([2]; 6700 nM) | level (log10) ([2]; 20000 nM) | level (log10) ([2]; 60000 nM) | level (log10) ([3]; 6700 nM) | level (log10) ([3]; 20000 nM) | level (log10) ([3]; 60000 nM) | level (log10) (1H,1H-Heptafluorobutanol; 6700 nM) | level (log10) (1H,1H-Heptafluorobutanol; 20000 nM) | level (log10) (1H,1H-Heptafluorobutanol; 60000 nM) |
| --- | --- | --- | --- | --- | --- | --- | --- | --- | --- | --- | --- | --- | --- | --- | --- | --- | --- | --- | --- | --- |
| HDF3CGF:CXCL8/IL-8 | 0.0065 ± 0.0064 | 0.008 ± 0.0057 | 0.006 ± 0.014 | -0.0155 ± 0.021 | -0.009 ± 0.0028 | 0.0045 ± 0.029 | -0.0075 ± 0.0021 | -0.0055 ± 0.012 | -0.005 ± 0.0014 | -0.0225 ± 0.011 | 0.0015 ± 0.005 | -0.0065 ± 0.005 | -0.001 ± 0.0028 | 0.001 ± 0.016 | 0.0025 ± 0.0078 | -0.002 ± 0.0057 | -0.0025 ± 0.0021 | -0.0025 ± 0.0064 | 0 ± 0.0028 | 0.0015 ± 0.0021 |
| lMphg:CD106/VCAM-1 | -0.0105 ± 0.012 | -0.035 ± 0.017 | 0 ± 0.0057 | -0.003 ± 0.0085 | -0.036 | -0.0835 ± 0.025 | -0.021 ± 0.0071 | 0.006 ± 0.0071 | 0.0435 ± 0.012 | -0.011 ± 0.0099 | -0.016 ± 0.0071 | -0.004 ± 0.018 | -0.0055 ± 0.021 | -0.0585 ± 0.039 | -0.004 ± 0.025 | -0.013 ± 0.018 | -0.0195 ± 0.0078 | -0.001 | 0.008 ± 0.0028 | 0.01 ± 0.0085 |
| CASM3C:M-CSF | -0.0095 ± 0.013 | 0.0125 ± 0.036 | 0.0065 ± 0.00071 | -0.0255 ± 0.018 | -0.0305 ± 0.0064 | -0.007 ± 0.038 | -0.0055 ± 0.04 | 0.0035 ± 0.03 | 0.027 ± 0.048 | -0.0235 ± 0.0035 | -0.0315 ± 0.011 | -0.0055 ± 0.035 | -0.024 ± 0.0057 | 0.0115 ± 0.073 | -0.007 ± 0.031 | -0.002 | 0.0025 ± 0.011 | 0.006 ± 0.021 | 0.03 ± 0.041 | 0.038 ± 0.016 |
| 3C:CD106/VCAM-1 | -0.009 ± 0.0057 | 0.0045 ± 0.0092 | 0.006 ± 0.017 | -0.0165 ± 0.0078 | -0.0245 ± 0.022 | -0.0595 ± 0.036 | -0.023 ± 0.0028 | -0.005 ± 0.0099 | -0.004 ± 0.0057 | -0.005 ± 0.0014 | -0.001 ± 0.021 | 0.0005 ± 0.013 | -0.0035 ± 0.019 | -0.0135 ± 0.021 | -0.0215 ± 0.015 | -0.016 ± 0.025 | -0.006 ± 0.013 | 0.008 ± 0.033 | 0.018 ± 0.025 | 0.001 ± 0.037 |
| 3C:CD142/Tissue Factor | -0.0025 ± 0.0078 | 0.0215 ± 0.023 | 0.02 ± 0.024 | 0.0255 ± 0.046 | 0.042 ± 0.051 | 0.042 ± 0.02 | 0.029 ± 0.033 | 0.009 ± 0.013 | 0.0245 ± 0.06 | -0.008 ± 0.057 | 0.025 ± 0.0057 | -0.0245 ± 0.059 | 0.0095 ± 0.015 | -0.074 ± 0.024 | 0.003 ± 0.0028 | 0.001 ± 0.0071 | -0.005 ± 0.038 | -0.0065 ± 0.021 | 0.0105 ± 0.015 | 0.026 ± 0.025 |
| CASM3C:LDLR | -0.0125 ± 0.00071 | 0.019 ± 0.014 | -0.0055 ± 0.018 | -0.01 ± 0.0085 | -0.024 ± 0.023 | -0.034 ± 0.011 | -0.0175 ± 0.0035 | 0.0135 ± 0.026 | 0.031 ± 0.027 | -0.011 ± 0.013 | -0.0065 ± 0.0021 | 0.0015 ± 0.022 | -0.016 ± 0.0028 | -0.0065 ± 0.023 | -0.0305 ± 0.0035 | -0.0255 ± 0.025 | -0.0345 ± 0.053 | -0.0025 ± 0.0035 | 0.012 ± 0.011 | 0.006 ± 0.03 |
| HDF3CGF:CXCL11/I-TAC | -0.0255 ± 0.023 | -0.0365 ± 0.057 | -0.0495 ± 0.018 | -0.042 ± 0.055 | -0.078 ± 0.014 | -0.21 ± 0.04 | -0.006 ± 0.0099 | -0.0185 ± 0.016 | -0.016 ± 0.0057 | -0.105 ± 0.029 | -0.217 ± 0.069 | -0.0355 ± 0.023 | -0.0895 ± 0.028 | -0.168 ± 0.024 | -0.0235 ± 0.00071 | 0.005 ± 0.0028 | -0.005 ± 0.0014 | -0.0135 ± 0.022 | -0.0185 ± 0.011 | -0.031 ± 0.061 |
| lMphg:M-CSF | -0.0235 ± 0.021 | -0.0205 ± 0.036 | 0.004 ± 0.018 | -0.0045 ± 0.0021 | -0.032 ± 0.011 | -0.0885 ± 0.0064 | 0.0175 ± 0.011 | -0.0055 ± 0.042 | 0.0085 ± 0.059 | -0.0055 ± 0.0021 | -0.0045 ± 0.0021 | -0.027 ± 0.045 | -0.0395 ± 0.0035 | -0.0475 ± 0.026 | 0.021 ± 0.028 | -0.0045 ± 0.074 | -0.0045 ± 0.07 | -0.005 ± 0.017 | 0.0045 ± 0.016 | 0.0125 ± 0.019 |
| CASM3C:CXCL8/IL-8 | -0.001 ± 0.017 | 0.006 ± 0.0099 | -0.0095 ± 0.0064 | -0.023 ± 0.0085 | -0.023 ± 0.0057 | -0.009 ± 0.024 | 0.013 ± 0.025 | 0.013 ± 0.016 | 0.044 ± 0.014 | 0.0045 ± 0.00071 | 0.0175 ± 0.016 | -0.0005 ± 0.013 | -0.008 | 0.023 ± 0.028 | 0.0255 ± 0.049 | 0.0255 ± 0.025 | 0.0375 ± 0.025 | 0.007 ± 0.0099 | 0.0045 ± 0.021 | 0.014 ± 0.04 |
| lMphg:sIL-10 | -0.0375 ± 0.056 | -0.036 ± 0.054 | 0.0005 ± 0.12 | -0.077 ± 0.047 | -0.117 ± 0.059 | -0.311 ± 0.081 | -0.029 ± 0.0028 | 0.013 ± 0.042 | 0.008 ± 0.058 | 0.0205 ± 0.0078 | -0.015 ± 0.0085 | -0.023 ± 0.024 | -0.042 ± 0.023 | -0.561 ± 0.13 | 0.043 ± 0.099 | -0.0475 ± 0.032 | 0.0065 ± 0.049 | -0.165 ± 0.033 | 0.032 ± 0.014 | -0.0565 ± 0.097 |
| BE3C:tPA | -0.0015 ± 0.03 | 0 ± 0.033 | -0.005 ± 0.078 | -0.0285 ± 0.083 | -0.108 ± 0.083 | -0.236 ± 0.079 | 0.008 ± 0.018 | 0.0385 ± 0.011 | 0.049 ± 0.05 | 0.0195 ± 0.023 | -0.0985 ± 0.023 | -0.0345 ± 0.029 | -0.09 ± 0.04 | -0.156 ± 0.018 | 0.0155 ± 0.022 | -0.0135 ± 0.0078 | 0 ± 0.025 | -0.019 ± 0.021 | -0.0125 ± 0.061 | 0.0005 ± 0.005 |
| BE3C:uPA | -0.0145 ± 0.012 | -0.0145 ± 0.0092 | -0.0025 ± 0.016 | 0 ± 0.013 | -0.0115 ± 0.019 | -0.041 ± 0.016 | 0.0025 ± 0.0035 | 0.0005 ± 0.005 | 0.0135 ± 0.0021 | 0.0035 ± 0.011 | -0.0125 ± 0.011 | 0.006 ± 0.025 | -0.0045 ± 0.025 | -0.003 ± 0.011 | -0.0035 ± 0.0021 | -0.007 ± 0.0042 | -0.005 ± 0.0099 | -0.0035 ± 0.005 | 0.015 ± 0.011 | 0.002 ± 0.0028 |
| BE3C:MMP-9 | -0.0065 ± 0.0021 | -0.005 ± 0.0057 | 0.0075 ± 0.046 | 0.0285 ± 0.04 | -0.0135 ± 0.03 | -0.0485 ± 0.028 | -0.0085 ± 0.0064 | 0.002 ± 0.0028 | 0.0015 ± 0.013 | 0.001 ± 0.014 | -0.04 ± 0.014 | -0.005 ± 0.0099 | 0.007 ± 0.031 | -0.0195 ± 0.0021 | -0.0125 ± 0.016 | -0.0205 ± 0.0035 | -0.0315 ± 0.0092 | 0.002 ± 0.0042 | 0.0015 ± 0.0064 | 0.0175 ± 0.033 |
| CASM3C:IL-6 | -0.019 ± 0.031 | 0.0205 ± 0.023 | 0.011 ± 0.051 | -0.045 ± 0.0057 | -0.051 ± 0.0085 | -0.042 ± 0.072 | 0.0435 ± 0.036 | -0.0225 ± 0.015 | 0.008 ± 0.023 | -0.0115 ± 0.00071 | -0.0325 ± 0.019 | -0.0205 ± 0.005 | -0.0205 ± 0.0021 | -0.0085 ± 0.03 | -0.032 ± 0.028 | -0.0375 ± 0.0021 | -0.015 ± 0.0057 | 0 ± 0.033 | -0.0125 ± 0.011 | 0.018 ± 0.042 |
